The record followed here is patent US10112899B2 (ViiV HEALTHCARE UK LIMITED, priority 2014, dated 2018).

The assay concerns HIV in the HTLV-1 transformed cell line MT-4. Description: organism not typed. Type of assay: cell-based. Conditions: MT-4 cells, luciferase/cell titer glo readout after 96 hours, 10 point dose response. In general terms: Cellular ATP, detected with luciferase, serves as a proxy for viable cell number.

For the compound `Cc1cc(Cl)ccc1-c1c(C)c2c(c(C)c1[C@H](OC(C)(C)C)C(=O)O)CN(C(=O)CC(C)(C)C)C2` [Example 325, (2S)-2-(tert-butoxy)-2-(6-(4-chloro-2-methylphenyl)-2-(3,3-dimethylbutanoyl)-4,7-dimethylisoindolin-5-yl)acetic acid], half-maximal inhibition (MT4, 96 h) (IC50) required 13 nM. Same read-out and setting: for `COc1ccc(C)cc1C(=O)N1Cc2c(C)c(-c3ccc(C)cc3)c([C@H](OC(C)(C)C)C(=O)O)c(C)c2C1` [Example 250, (S)-2-(tert-butoxy)-2-(2-(2-methoxy-5-methylbenzoyl)-4,7-dimethyl-6-(p-tolyl)isoindolin-5-yl)acetic acid] the value was 4 nM; for `Cc1c(-c2c(C)c3c(c(C)c2[C@H](OC(C)(C)C)C(=O)O)CN(C(=O)N2CCOC[C@@H]2C)C3)cc(F)c2c1CCCO2` (atropisomer, axis not shown; (M)) [Example 209, (S)-2-(tert-butoxy)-2-((M)-6-(8-fluoro-5-methylchroman-6-yl)-4,7-dimethyl-2-((S)-3-methylmorpholine-4-carbonyl)isoindolin-5-yl)acetic acid], 23 nM; for `CCOCCC(=O)N1Cc2c(C)c(-c3ccc(C)cc3)c([C@H](OC(C)(C)C)C(=O)O)c(C)c2C1` [Example 232, (S)-2-(tert-butoxy)-2-(2-(3-ethoxypropanoyl)-4,7-dimethyl-6-(p-tolyl)isoindolin-5-yl)acetic acid], 148 nM. The same measure, in the same setting: under `COc1ccccc1C(=O)N1Cc2c(C)c(-c3ccc(C)cc3)c([C@H](OC(C)(C)C)C(=O)O)c(C)c2C1` [Example 163, (S)-2-(tert-butoxy)-2-(2-(2-methoxybenzoyl)-4,7-dimethyl-6-(p-tolyl)isoindolin-5-yl)acetic acid] stands 4 nM. On the same count and under the same terms, for `COc1ccc(C)c(C(=O)N2Cc3c(C)c(-c4ccc(C)cc4)c([C@H](OC(C)(C)C)C(=O)O)c(C)c3C2)c1` [Example 249, (S)-2-(tert-butoxy)-2-(2-(5-methoxy-2-methylbenzoyl)-4,7-dimethyl-6-(p-tolyl)isoindolin-5-yl)acetic acid] the value was 5 nM. Regarding `Cc1ccc(-c2c(C)c3c(c(C)c2[C@H](OC(C)(C)C)C(=O)O)CN(C(=O)N(C)C2CCCCC2)C3)cc1` [Example 67, (2S)-2-(tert-butoxy)-2-{2-[cyclohexyl(methyl)carbamoyl]-4,7-dimethyl-6-(4-methylphenyl)-2,3-dihydro-1H-isoindol-5-yl}acetic acid], under “MT4, 96 h”, the IC50 (as a rule, the concentration needed to halve the response being measured) is 55 nM.

`Cc1ccc(-c2c(C)c3c(c(C)c2[C@H](OC(C)(C)C)C(=O)O)CN(C(=O)N2CCCC(C)(C)C2)C3)cc1` [Example 93, (S)-2-(tert-butoxy)-2-(2-(3,3-dimethylpiperidine-1-carbonyl)-4,7-dimethyl-6-(p-tolyl)isoindolin-5-yl)acetic acid] yielded a half-inhibitory concentration (IC50) (MT4, 96 h) of 7 nM. In the case of `COc1cccc(C(=O)N2Cc3c(C)c(-c4cc(F)c5c(c4C)CCCO5)c([C@H](OC(C)(C)C)C(=O)O)c(C)c3C2)c1` (atropisomer, axis not shown; (M)) [Example 159, (S)-2-(tert-butoxy)-2-(6-((M)-8-fluoro-5-methylchroman-6-yl)-2-(3-methoxybenzoyl)-4,7-dimethylisoindolin-5-yl)acetic acid], for the setting “MT4, 96 h”, half-maximal inhibition (IC50) was put at 2 nM.

As for `Cc1ccc(-c2c(C)c3c(c(C)c2[C@H](OC(C)(C)C)C(=O)O)CN(C(=O)OCC(C)(C)C)C3)cc1` [Example 287, (S)-2-(tert-butoxy)-2-(4,7-dimethyl-2-((neopentyloxy)carbonyl)-6-(p-tolyl)isoindolin-5-yl)acetic acid], the IC50 (MT4, 96 h) turned out to be 5 nM. On the same count and under the same terms, under `Cc1ccc(Cl)cc1C(=O)N1Cc2c(C)c(-c3cc(F)c4c(c3C)CCCO4)c([C@H](OC(C)(C)C)C(=O)O)c(C)c2C1` (atropisomer, axis not shown; (M)) [Example 185, (S)-2-(tert-butoxy)-2-((M)-2-(5-chloro-2-methylbenzoyl)-6-(8-fluoro-5-methylchroman-6-yl)-4,7-dimethylisoindolin-5-yl)acetic acid] stands 4 nM; under `Cc1ccc(-c2c(C)c3c(c(C)c2[C@H](OC(C)(C)C)C(=O)O)CN(C(=O)c2ccccc2C(C)(C)C)C3)cc1` [Example 242, (S)-2-(tert-butoxy)-2-(2-(2-(tert-butyl)benzoyl)-4,7-dimethyl-6-(p-tolyl)isoindolin-5-yl)acetic acid], 13 nM. The same measure, in the same setting: for `Cc1ccc(-c2c(C)c3c(c(C)c2[C@H](OC(C)(C)C)C(=O)O)CN(C(=O)c2ccc(C(F)(F)F)cc2)C3)cc1` [Example 227, (S)-2-(tert-butoxy)-2-(4,7-dimethyl-6-(p-tolyl)-2-(4-(trifluoromethyl)benzoyl)isoindolin-5-yl)acetic acid] the value was 14 nM; for `Cc1ccc(-c2c(C)c3c(c(C)c2[C@H](OC(C)(C)C)C(=O)O)CN(C(=O)c2cccc4c2OCCO4)C3)cc1` [Example 105, (S)-2-(tert-butoxy)-2-(2-(2,3-dihydrobenzo[b][1,4]dioxine-5-carbonyl)-4,7-dimethyl-6-(p-tolyl)isoindolin-5-yl)acetic acid], 14 nM. Still for that read-out and setting: for `Cc1ccc(-c2c(C)c3c(c(C)c2[C@H](OC(C)(C)C)C(=O)O)CN(C(=O)c2cccc4sccc24)C3)cc1` [Example 166, (S)-2-(2-(benzo[b]thiophene-4-carbonyl)-4,7-dimethyl-6-(p-tolyl)isoindolin-5-yl)-2-(tert-butoxy)acetic acid] the value was 27 nM; for `Cc1c(-c2c(C)c3c(c(C)c2[C@H](OC(C)(C)C)C(=O)O)CN(C(=O)c2cccc4c2OCC4)C3)cc(F)c2c1CCCO2` (atropisomer, axis not shown; (M)) [Example 152, (S)-2-(tert-butoxy)-2-((M)-2-(2,3-dihydrobenzofuran-7-carbonyl)-6-(8-fluoro-5-methylchroman-6-yl)-4,7-dimethylisoindolin-5-yl)acetic acid], 2 nM; for `Cc1ccc(-c2c(C)c3c(c(C)c2[C@H](OC(C)(C)C)C(=O)O)CN(Cc2ccncc2)C3)cc1` [Example 11, (S)-2-(tert-butoxy)-2-(4,7-dimethyl-2-(pyridin-4-ylmethyl)-6-(p-tolyl)isoindolin-5-yl)acetic acid], 174 nM. `COc1ccc(F)cc1C(=O)N1Cc2c(C)c(-c3cc(F)c4c(c3C)CCCO4)c([C@H](OC(C)(C)C)C(=O)O)c(C)c2C1` (atropisomer, axis not shown; (M)) [Example 150, (S)-2-(tert-butoxy)-2-((M)-2-(5-fluoro-2-methoxybenzoyl)-6-(8-fluoro-5-methylchroman-6-yl)-4,7-dimethylisoindolin-5-yl)acetic acid] had a 50% inhibitory concentration (IC50) (MT4, 96 h) of 4 nM. For `Cc1c(-c2c(C)c3c(c(C)c2[C@H](OC(C)(C)C)C(=O)O)CN(C(=O)c2cccc(F)c2)C3)ccc2c1NCCO2` [Example 311, (2S)-2-(tert-butoxy)-2-(2-(3-fluorobenzoyl)-4,7-dimethyl-6-(5-methyl-3,4-dihydro-2H-benzo[b][1,4]oxazin-6-yl)isoindolin-5-yl)acetic acid], the IC50 is 15 nM. Compound `Cc1c(-c2c(C)c3c(c(C)c2[C@H](OC(C)(C)C)C(=O)O)CN(C(=O)c2cc(Cl)c(F)c(Cl)c2)C3)cc(F)c2c1CCCO2` (atropisomer, axis not shown; (M)) [Example 188, (S)-2-(tert-butoxy)-2-((M)-2-(3,5-dichloro-4-fluorobenzoyl)-6-(8-fluoro-5-methylchroman-6-yl)-4,7-dimethylisoindolin-5-yl)acetic acid] yielded an IC50 (MT4, 96 h) of 4 nM.

`Cc1ccc(C(=O)N2Cc3c(C)c(-c4cc(F)c5c(c4C)CCCO5)c([C@H](OC(C)(C)C)C(=O)O)c(C)c3C2)cc1` (atropisomer, axis not shown; (M)) [Example 190, (S)-2-(tert-butoxy)-2-((M)-6-(8-fluoro-5-methylchroman-6-yl)-4,7-dimethyl-2-(4-methylbenzoyl)isoindolin-5-yl)acetic acid] returned an IC50 (MT4, 96 h) of 5 nM. In turn, `COc1cccc(C(=O)N2Cc3c(C)c(-c4ccc(C)cc4)c([C@H](OC(C)(C)C)C(=O)O)c(C)c3C2)c1F` [Example 253, (S)-2-(tert-butoxy)-2-(2-(2-fluoro-3-methoxybenzoyl)-4,7-dimethyl-6-(p-tolyl)isoindolin-5-yl)acetic acid] gave an IC50 (MT4, 96 h) of 12 nM.
